Here are results for 54 compounds from the OPERA property sets (Mansouri et al. 2018).

In general, boiling point refers to the temperature of boiling at a given pressure. In turn, `Cc1coc(C)n1` had a boiling point of 108 °C. As a reminder, the melting point is the temperature of the solid-liquid transition. Compound `CCCCCCCN` registered a boiling point of 156 °C, a log10 vapour pressure (mmHg) of 0.438 and a melting point of -18 °C. As to `c1ccc(C2=NCCN2)cc1`, the melting point was found to be 96.5 °C. Regarding `O=COC1CCCCC1`, the boiling point came out at 163 °C. On to `O=C1c2ccccc2C(=O)N1CCCBr`, for which the melting point was determined as 75 °C. As to `Cc1cccs1`, the boiling point is 113 °C, the log10 Henry constant (atm·m³/mol) is -2.62, the log10 vapour pressure (mmHg) stood at 1.4 and the melting point was -63.4 °C.

In turn, `C#CC(C)(C)NC(=O)c1cc(Cl)cc(Cl)c1` yielded a log10 Koc (L/kg) of 2.31, a log10 vapour pressure (mmHg) of -6.36 and a melting point of 155 °C. The compound `CCc1ccnc(C)c1` showed a boiling point of 179 °C.

Turning to `COC(=O)c1c(Cl)nn(C)c1S(=O)(=O)NC(=O)Nc1nc(OC)cc(OC)n1`, the melting point turned out to be 176 °C.

Compound `Ic1cccc(I)c1I` yielded a melting point of 116 °C. Consider `C=Cc1ccc(C=C)cc1`, for which the melting point stood at 31 °C and the ready biodegradability entry is on record as “not readily biodegradable”. `CC(C)(CO)[N+](=O)[O-]` gave a melting point of 89.5 °C. As for `O=C(O)c1ccc(C(=O)O)nc1`, the melting point worked out at 254 °C and the ready biodegradability result is given as “not readily biodegradable”. `CCCCCCCCCCCCCCCCOCC(O)CO` (stereo not given) came in with a melting point of 64 °C. For `O=C1c2ccccc2C(=O)N1CCBr`, the melting point is 82.5 °C. In the case of `COc1cc(Cl)c(Cl)cc1Cl`, the boiling point worked out at 254 °C and the melting point stood at 77.5 °C. In the case of `COCCO`, the boiling point worked out at 124 °C, the log10 Henry constant (atm·m³/mol) is -6.48, the log10 vapour pressure (mmHg) came out at 0.978 and the ready biodegradability entry is listed as “readily biodegradable”. In turn, `CCC[Si](Cl)(Cl)Cl` yielded a boiling point of 124 °C and a log10 vapour pressure (mmHg) of 1.46. `CC(C)(C)SC(C)(C)C` returned a boiling point of 149 °C and a melting point of -9 °C. As for `CC1(C)CCCCC1`, the boiling point was found to be 120 °C, the log10 vapour pressure (mmHg) turned out to be 1.36, the melting point is -33.3 °C and the ready biodegradability entry is given as “not readily biodegradable”. With `CC(C)NCCCC1(C(N)=O)c2ccccc2-c2ccccc21`, the melting point amounted to 94.5 °C. For `Cc1cnccc1N`, the melting point was 108 °C. In turn, `CON(C)C(=O)Nc1ccc(Oc2ccc3c(c2)OC(C)(OC)CC3(C)C)cc1` (stereo not given) had a melting point of 102 °C. Compound `CCC(C)(O)C#CC(C)(O)CC` (stereo not given) registered a boiling point of 135 °C.

For the compound `CCOC(=O)CC(C)O` (stereo not given), the boiling point was determined as 185 °C. As for `CCCCCCCCCCCCCCCCCCCCCCCCCCO`, the melting point was 80 °C and the ready biodegradability result is “readily biodegradable”. On to `OCC1CC23CCC1(CC2)CC3CO` (stereo not given), for which the ready biodegradability entry is listed as “not readily biodegradable”. `CCc1cccc(CC)c1` gave a boiling point of 181 °C, a log10 biodegradation half-life (days) of 0.845, a log10 vapour pressure (mmHg) of 0.0531 and a melting point of -83.9 °C. Also, the ready biodegradability entry is “not readily biodegradable”.

In turn, `O=C(O)c1ccoc1` came in with a melting point of 122 °C. The same measure, in the same setting: under `CC(C)[C@@H]1CCCCC1=O` stands 72.5 °C; under `Oc1ccc(O)c(Br)c1`, 112 °C. For `Clc1ccc(Cl)c(-c2c(Cl)ccc(Cl)c2Cl)c1`, the log10 Henry constant (atm·m³/mol) was -3.92, the log10 Koa worked out at 8.79 and the log10 Koc (L/kg) worked out at 5.55.

`CC(C)(C)N(NC(=O)c1ccccc1)C(=O)c1ccccc1`: the melting point was 178 °C. `C[C@H]1C[C@H]1C(=O)O` registered a boiling point of 191 °C.

For the compound `CC(C)(CC(=O)O)c1ccccc1`, the melting point worked out at 60 °C.

Compound `CCOP(=S)(OCC)Oc1cc(C)nc(N(CC)CC)n1` showed a log10 Koc (L/kg) of 2.48, a log10 vapour pressure (mmHg) of -3.54 and a melting point of 15 °C.

Compound `Cc1cc2ccccc2cn1` registered a boiling point of 249 °C and a melting point of 68 °C. With `CC(C)OCCO`, the boiling point stood at 145 °C, the log10 Henry constant (atm·m³/mol) was -6.04 and the ready biodegradability result was “not readily biodegradable”. As for `NCC(=O)O`, the ready biodegradability entry was “readily biodegradable”. In turn, `CCCCCCOc1ccc(N)cc1` yielded a melting point of 44 °C.

As for `c1ccc(C2CCCC2)cc1`, the boiling point stood at 219 °C. With `COc1cccc(C(=O)NN(C(=O)c2cc(C)cc(C)c2)C(C)(C)C)c1C`, the melting point is 204 °C. As for `CC(=O)Br`, the boiling point came to 76 °C, the log10 vapour pressure (mmHg) turned out to be 2.08 and the melting point is -96 °C. Take `CC(CC(C)(C)C)CC(C)(C)CC(C)(C)C` (stereo not given): the ready biodegradability entry is “not readily biodegradable”.

Take `CCCCCCCCCCCCCCCCCCN=C=O`: the boiling point amounted to 300 °C, the melting point came out at 20 °C and the ready biodegradability entry is “not readily biodegradable”. Regarding `CC(C)(C)OCC1CO1` (stereo not given), the boiling point came out at 152 °C and the melting point was -70 °C. The compound `Cc1ccccc1C(=O)c1ccccc1` had a boiling point of 308 °C. Take `O=C1OC(=O)C2=C1CCCC2`: the melting point was 74 °C. As for `CN1CCc2cc3c(cc2C(=O)Cc2ccc4c(c2C1)OCO4)OCO3`, the melting point was 208 °C. `COC(=O)Nc1ccccc1` showed a log10 Koc (L/kg) of 1.73.

Compound `Cc1nc(=O)c2ccccc2[nH]1` showed a melting point of 232 °C. Compound `Cc1cccc(N=Cc2ccccc2)c1` returned a boiling point of 315 °C and a melting point of 31 °C. The compound `CNc1ccc2oc(C[C@@H]3OC4(CC[C@@H]3C)O[C@H](C(C)C(=O)c3ccc[nH]3)[C@H](C)C[C@H]4C)nc2c1C(=O)O` (stereo not given in full) yielded a melting point of 182 °C.

With `O=C1CCCc2ccccc21`, the melting point worked out at 8 °C.
